According to patent EP4644392A1, “PYRIDAZINE FUSED ARYL RING COMPOUND AND USE THEREOF” (Chia Tai Tianqing Pharmaceutical Group Co., Ltd., priority 2022, dated 2024):
Where two headings read alike, the source gives them in different places.

Key:
[1] = tested on: IL-1β expression in THP-1 cells; assay: In-vitro THP-1 cell (IL-1β) expression assay (LPS + nigericin, ELISA); format: cell-based; details: Homo sapiens; for inhibition at 0.001 µM: THP-1, read-out: 1 nM (% inhibition); for inhibition at 0.01 µM: THP-1, read-out: 10 nM (% inhibition); for inhibition at 0.1 µM: THP-1, read-out: 100 nM (% inhibition)
Description: THP-1 cells in good growth status were collected into a centrifuge tube, and the cell density was adjusted to 2 × 10^6 cells/mL. The cells were then seeded into a 96-well plate (50 µL/well), and meanwhile, LPS (manufacturer: Sigma; 50 µL/well) was added at a final concentration of 100 ng/mL. The plate was then incubated at 37 °C with 5% CO2 for 3 h. […] The plate was incubated at 37 °C with 5% CO2 for 1 h. Nigericin (manufacturer: Millipore; 50 µL/well) was added at a final concentration of 10 µM, and the plate was incubated at 37 °C with 5% CO2 for 1 h and then centrifuged at 1500 rpm for 3 min. The supernatant was collected and stored at -20 °C for subsequent detection of human IL-1β.
Human IL-1β detection (manufacturer: R&D): Human IL-1β Capture Antibody (coating antibody) was added to a high-binding 96-well plate at a final concentration of 4 µg/mL (100 µL/well), and the plate was incubated at 4 °C overnight. The supernatant was discarded, and the plate was washed with PBST (300 µL/well, 3 times in total). A 1% BSA-PBS blocking buffer was added (200 µL/well), and the plate was blocked at 25 °C for 2 h. The supernatant was discarded, and the plate was washed with PBST (300 µL/well, 3 times in total). A standard curve sample and the diluted samples to be tested were then added (100 µL/well), and the plate was incubated at 25 °C for 2 h. The supernatant was discarded, and the plate was washed with PBST (300 µL/well, 3 times total). Human IL-1β Detection Antibody (detection secondary antibody) was added at a final concentration of 200 ng/mL (100 µL/well), and the plate was incubated at 25 °C for 2 h. The supernatant was discarded, and the plate was washed with PBST (300 µL/well, 3 times in total). Streptavidin-HRP (detection tertiary antibody) was then added (100 µL/well), and the plate was incubated at 25 °C for 20 min. The supernatant was discarded, and the plate was washed with PBST (300 µL/well, 3 times in total). TMB was added for color development (100 µL/well), and the plate was incubated at 25 °C for 5 min. Finally, 1 M H2SO4 was added to terminate the reaction (50 µL/well). Absorbance values were measured at 450/570 nm using a PerkinElmer Envision microplate reader. Data were analyzed using a four-parameter model to calculate the IL-1β expression amount and inhibition rate. […]

[2] = tested on: J774A.1 cells; assay: Anti-pyroptosis activity assay in J774A.1 cells (CCK-8 readout, nigericin stimulation); format: cell-based; details: Mus musculus, J774.A1, nigericin 10 µM
[3] = In-vitro stability in liver microsomes; details: human liver microsomes 0.5 mg/mL, NADPH, 37 °C, 1 h
[4] = microsomes, 1 h

SMILES | inhibition at 0.001 µM [1] [%] | inhibition at 0.01 µM [1] [%] | EC50 [2] [nM] | Human Remaining amount at 60 min (%) [3] [%] | inhibition at 0.1 µM [1] [%] | Human Remaining amount at 60 min (%) [4] [%]
CN1CCC[C@@H](Nc2nnc(-c3ccc(C(F)(F)F)cc3O)n3cccc23)C1 [Example 1] | ≥ 50 | ≥ 50 | < 100 | 95.57 | – | –
CN1CCC[C@@H](Nc2nnc(-c3ccc(C(F)(F)F)cc3O)c3cc4sccc4n23)C1 [Example 2] | 10 to 50 | 10 to 50 | < 100 | – | ≥ 50 | 80.23
CN1CCC[C@@H](Nc2nnc(-c3ccc(C(F)(F)F)cc3O)n3c2cc2sccc23)C1 [Example 3] | 10 to 50 | 10 to 50 | 100 to 1000 | – | ≥ 50 | –
CN1CCC[C@@H](Nc2nnc(-c3ccc(C(F)(F)F)cc3O)c3c4c(cn23)CCC4)C1 [Example 4] | 10 to 50 | 10 to 50 | 100 to 1000 | – | ≥ 50 | –
CN1CCC[C@@H](Nc2nnc(-c3ccc(C(F)(F)F)cc3O)n3cc4c(c23)CCC4)C1 [Example 5] | 10 to 50 | ≥ 50 | < 100 | 72.41 | ≥ 50 | –
CN1CCC[C@@H](Nc2nnc(-c3ccc(C(F)(F)F)cc3O)c3cc4c(n23)CCC4)C1 [Example 6] | 10 to 50 | 10 to 50 | 100 to 1000 | – | ≥ 50 | –
CN1CCC[C@@H](Nc2nnc(-c3ccc(C(F)(F)F)cc3O)n3c4c(cc23)CCC4)C1 [Example 7] | – | – | – | 90.01 | – | –
OCCN1CCC[C@@H](Nc2nnc(-c3ccc(C(F)(F)F)cc3O)n3cc4c(c23)CCC4)C1 [Example 8] | – | – | – | 79.13 | – | –
C#Cc1ccc(-c2nnc(N[C@@H]3CCCN(C)C3)c3cccn23)c(O)c1 [Example 9] | ≥ 50 | ≥ 50 | < 100 | 98.65 | ≥ 50 | –
CC#Cc1ccc(-c2nnc(N[C@@H]3CCCN(C)C3)c3cccn23)c(O)c1 [Example 10] | – | – | – | 99.00 | – | –
C#Cc1ccc(-c2nnc(N[C@@H]3CCCN(C)C3)c3c4c(cn23)CCC4)c(O)c1 [Example 11] | – | – | – | 75.56 | – | –
C=Cc1ccc(-c2nnc(N[C@@H]3CCCN(C)C3)c3cccn23)c(O)c1 [Example 12] | ≥ 50 | ≥ 50 | – | 100.53 | ≥ 50 | –
CN1CCC[C@@H](Nc2nnc(-c3ccc(Cl)cc3O)n3cccc23)C1 [Example 13] | – | – | < 100 | – | – | –
OCCN1CCC[C@@H](Nc2nnc(-c3ccc(C(F)(F)F)cc3O)c3c4c(cn23)CCC4)C1 [Example 14] | – | – | – | 93.13 | – | –
C[C@]1(O)C[C@@H](Nc2nnc(-c3ccc(C(F)(F)F)cc3O)n3cccc23)C1 [Example 15] | – | – | 100 to 1000 | – | – | –
Oc1cc(C(F)(F)F)ccc1-c1nnc(N[C@@H]2COC[C@H]2O)c2c3c(cn12)CCC3 [Example 16] | – | – | 100 to 1000 | – | – | –
Oc1cc(C(F)(F)F)ccc1-c1nnc(N[C@@H]2COC[C@@H]2O)c2c3c(cn12)CCC3 [Example 17] | – | – | 100 to 1000 | – | – | –
Oc1cc(Cl)ccc1-c1nnc(N[C@@H]2COC[C@H]2O)c2c3c(cn12)CCC3 [Example 18] | – | – | 100 to 1000 | – | – | –
Oc1cc(C(F)(F)F)ccc1-c1nnc(N[C@@H]2CCCC[C@H]2O)c2c3c(cn12)CCC3 [Example 21] | – | – | < 100 | – | – | –
CS(=O)(=O)N1CCC[C@@H](Nc2nnc(-c3ccc(C(F)(F)F)cc3O)n3cccc23)C1 [Example 22] | – | – | 100 to 1000 | – | – | –
NS(=O)(=O)N1CCC[C@@H](Nc2nnc(-c3ccc(C(F)(F)F)cc3O)n3cccc23)C1 [Example 23] | – | – | < 100 | 93.93 | – | –
O=S(=O)(C1CC1)N1CCC[C@@H](Nc2nnc(-c3ccc(C(F)(F)F)cc3O)n3cccc23)C1 [Example 24] | – | – | 100 to 1000 | – | – | –
CS(=N)(=O)N1CCC[C@@H](Nc2nnc(-c3ccc(C(F)(F)F)cc3O)n3cccc23)C1 (stereo partly shown) [Example 25] | – | – | 100 to 1000 | 98.06 | – | –
